Legend:
[1] = test system: morning glory; assay: Field testing of emulsifiable concentrates, post-emergent control (Example 40); assay type: in vivo
Description: (§1) Three dicamba esters, 30a, 32a, and 36a, were formulated as emulsifiable concentrates for field testing. All surfactants are commercial materials from Stepan.
(§2) The formulations were tested in the field. Locations and timing were identical for the three esters, but differed slightly for the diglycolamine control. The esters were compared to the diglycolamine salt of dicamba (CLARITY™) for post-emergent control of three broadleaf weeds: velvetleaf, morning glory, and hemp sesbania. Rates of 280 and 560 g dicamba acid equivalent per hectare were used.

[2] = test system: hemp sesbania; assay: as above; assay type: in vivo
Description: as §1, §2

[3] = test system: velvetleaf; assay: as above; assay type: in vivo
Description: as §1, §2

[4] = test system: soybeans; assay: Humidome volatility injury, ester 32a emulsifiable concentrate (Example 32); settings: humidome, dicamba 0.6% and glyphosate 1.2% acid equivalent, 14 days after treatment
Text: […] The mixtures were sprayed at a 10 gallon per acre (93.5 liters per hectare) rate on soil in a plastic container (“humidome”) with a transparent lid. One soil container was sprayed with water as a control. Four glyphosate-tolerant, dicamba-sensitive soy plants between V2 and V3 stage were immediately placed on the sprayed soil and the domes attached to the trays with binder clips. The soy plants were in pots placed directly on the soil but with aluminum foil wrapped around the bottom to prevent uptake of dicamba or dicamba esters through the roots.
The closed containers were held for 24 hours in a growth chamber which was maintained at 35° C. with 40% relative humidity. […] At this time plant injury and growth stage were assessed compared to the control treated with water only.

[5] = test system: broadleaf weeds; assay: Control of broadleaf weeds by ester concentrates (statements of the description); assay type: in vivo; settings: emulsifiable and suspension concentrates; Sesbania macrocarpa, morning glory, velvetleaf, Palmer amaranth, fat hen, sicklepod
[6] = In vitro photo-release and hydrolytic release of dicamba in an aqueous medium (Example 35); assay type: physicochemical; settings: 0.01 mM ester, 35° C.
Description: This Example describes the determination of photo-lability and hydrolytic lability of dicamba esters in an aqueous medium. 1 mM solutions of the esters were prepared in acetonitrile (or […] solutions of dicamba diesters). The solutions were then diluted with deionized water to a concentration of 0.01 mM (or 0.005 mM for diesters). The solutions were then transferred to quartz tubes and amber bottles and held in a growth chamber by the procedure of Example 26. A 14-hour day was generally used at a constant temperature of 35° C. Hydrolytic activity was assessed by measuring the increase in dicamba concentration after day zero in the amber (dark) bottles. […] Photolysis manifested itself as increased conversion in the quartz tubes compared to the dark control.

[7] = test system: three broadleaf weeds: velvetleaf, morning glory, and hemp sesbania; assay: Field testing of Example 40, overall post-emergent activity in words; assay type: in vivo; settings: 280 and 560 g dicamba acid equivalent per hectare
Description: as §1, §2

[8] = test system: velvetleaf; assay: Greenhouse post-emergent control of velvetleaf by emulsifiable concentrates (Example 37); assay type: in vivo
Summary of the method: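 Photo-labile dicamba ester emulsifiable concentrates sprayed post-emergence in the greenhouse on velvetleaf 10-15 cm tall at 140, 280, 420 and 560 g dicamba equivalent per hectare. Percent control scored three weeks after treatment.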

[9] = 280 g dicamba acid equivalent per hectare
[10] = 560 g dicamba acid equivalent per hectare

Compound: COc1c(Cl)ccc(Cl)c1C(=O)Oc1ccc(=O)n(CCC(C)=O)n1 [Ester 32a]
- % control 19 days after treatment, 280 g/ha, Morning glory [1, 9]: 70 ± 24%
- % control 19 days after treatment, 560 g/ha, Morning glory [1, 10]: 87 ± 10%
- % control 19 days after treatment, 280 g/ha, Hemp sesbania [2, 9]: 76 ± 5%
- % control 19 days after treatment, 560 g/ha, Hemp sesbania [2, 10]: 91 ± 8%
- % control 19 days after treatment, 280 g/ha, Velvetleaf [3, 9]: 59 ± 28%
- % control 19 days after treatment, 560 g/ha, Velvetleaf [3, 10]: 68 ± 26%
- average injury to soybeans [4]: 19%
- control of a number of broadleaf weeds in field testing, in words [5]: proven effective
- Conversion to Dicamba, Dark, Day 0 ([6]; amber (dark) bottle, Day 0): 5%
- Conversion to Dicamba, Dark, Day 1 ([6]; amber (dark) bottle, Day 1): 12%
- Conversion to Dicamba, Dark, Day 2 ([6]; amber (dark) bottle, Day 2): 14%
- Conversion to Dicamba, Dark, Day 3 ([6]; amber (dark) bottle, Day 3): 17%
- Conversion to Dicamba, Dark, Day 4 ([6]; amber (dark) bottle, Day 4): 22%
- Conversion to Dicamba, Dark, Day 7 ([6]; amber (dark) bottle, Day 7): 34%
- Conversion to Dicamba, Dark, Day 14 ([6]; amber (dark) bottle, Day 14): 41%
- Conversion to Dicamba, Dark, Day 21 ([6]; amber (dark) bottle, Day 21): 55%
- Conversion to Dicamba, Dark, Day 28 ([6]; amber (dark) bottle, Day 28): 70%
- Conversion to Dicamba, Light, Day 0 ([6]; quartz tube, 14-hour day, Day 0): 5%
- Conversion to Dicamba, Light, Day 1 ([6]; quartz tube, 14-hour day, Day 1): 14%
- Conversion to Dicamba, Light, Day 2 ([6]; quartz tube, 14-hour day, Day 2): 16%
- Conversion to Dicamba, Light, Day 3 ([6]; quartz tube, 14-hour day, Day 3): 18%
- Conversion to Dicamba, Light, Day 4 ([6]; quartz tube, 14-hour day, Day 4): 22%
- Conversion to Dicamba, Light, Day 7 ([6]; quartz tube, 14-hour day, Day 7): 27%
- Conversion to Dicamba, Light, Day 14 ([6]; quartz tube, 14-hour day, Day 14): 44%
- Conversion to Dicamba, Light, Day 21 ([6]; quartz tube, 14-hour day, Day 21): 50%
- Conversion to Dicamba, Light, Day 28 ([6]; quartz tube, 14-hour day, Day 28): 59%
- post-emergent activity compared with the dicamba salt, in words [7]: intermediate activity
- pest or weed control at 140 g/ha ([8]; Abutilon theophrasti, post-emergence, 504 h, read-out: % Control of velvetleaf, 140 g/ha): 12.5%
- pest or weed control at 280 g/ha ([8]; Abutilon theophrasti, post-emergence, 504 h, read-out: % Control of velvetleaf, 280 g/ha): 19.2%
- pest or weed control at 420 g/ha ([8]; Abutilon theophrasti, post-emergence, 504 h, read-out: % Control of velvetleaf, 420 g/ha): 33.3%
- pest or weed control at 560 g/ha ([8]; Abutilon theophrasti, post-emergence, 504 h, read-out: % Control of velvetleaf, 560 g/ha): 37.5%
- post-emergent efficacy on velvetleaf compared with the salt, in words ([8]; greenhouse, emulsifiable concentrates): reduced post-emergent efficacy
